This is an account of results in ChEMBL document CHEMBL1122289.

For assay [1], the target named is T1, Progesterone receptor (Oryctolagus cuniculus) (UniProt P06186).
T1 sequence (whole entry): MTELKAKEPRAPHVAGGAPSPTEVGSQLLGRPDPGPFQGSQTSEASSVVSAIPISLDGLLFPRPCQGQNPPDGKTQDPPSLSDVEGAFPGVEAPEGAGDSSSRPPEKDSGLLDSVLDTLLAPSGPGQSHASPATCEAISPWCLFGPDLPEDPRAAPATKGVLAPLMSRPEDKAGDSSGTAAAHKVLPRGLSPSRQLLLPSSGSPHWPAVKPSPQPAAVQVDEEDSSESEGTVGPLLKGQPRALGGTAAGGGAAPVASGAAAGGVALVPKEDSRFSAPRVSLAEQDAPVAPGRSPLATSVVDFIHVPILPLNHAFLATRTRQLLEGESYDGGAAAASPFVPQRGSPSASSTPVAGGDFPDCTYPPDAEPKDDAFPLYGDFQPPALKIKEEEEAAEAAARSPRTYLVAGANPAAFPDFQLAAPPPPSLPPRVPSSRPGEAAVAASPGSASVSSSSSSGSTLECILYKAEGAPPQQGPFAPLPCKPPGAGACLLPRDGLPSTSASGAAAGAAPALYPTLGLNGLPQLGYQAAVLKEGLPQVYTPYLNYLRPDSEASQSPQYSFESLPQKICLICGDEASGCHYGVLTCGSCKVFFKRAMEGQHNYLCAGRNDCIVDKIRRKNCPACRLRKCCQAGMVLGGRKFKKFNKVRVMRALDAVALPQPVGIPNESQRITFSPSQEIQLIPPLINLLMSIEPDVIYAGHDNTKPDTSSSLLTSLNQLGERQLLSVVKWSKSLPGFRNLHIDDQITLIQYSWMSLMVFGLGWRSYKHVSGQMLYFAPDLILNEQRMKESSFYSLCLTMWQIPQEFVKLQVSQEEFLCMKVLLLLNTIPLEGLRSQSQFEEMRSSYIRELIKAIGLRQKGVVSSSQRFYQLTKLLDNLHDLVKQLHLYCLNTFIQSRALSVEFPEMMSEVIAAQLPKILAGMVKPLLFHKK
The experiment in a line: Relative binding affinity for progesterone receptor.

The target in assay [2] is Estrogen receptor (Mus musculus) (UniProt O08537+P19785). The experiment in a line: Relative binding affinity for estrogen receptor. In kind it is protein assay.
Estrogen receptor (Mus musculus), sequence (O08537 whole entry, looked up): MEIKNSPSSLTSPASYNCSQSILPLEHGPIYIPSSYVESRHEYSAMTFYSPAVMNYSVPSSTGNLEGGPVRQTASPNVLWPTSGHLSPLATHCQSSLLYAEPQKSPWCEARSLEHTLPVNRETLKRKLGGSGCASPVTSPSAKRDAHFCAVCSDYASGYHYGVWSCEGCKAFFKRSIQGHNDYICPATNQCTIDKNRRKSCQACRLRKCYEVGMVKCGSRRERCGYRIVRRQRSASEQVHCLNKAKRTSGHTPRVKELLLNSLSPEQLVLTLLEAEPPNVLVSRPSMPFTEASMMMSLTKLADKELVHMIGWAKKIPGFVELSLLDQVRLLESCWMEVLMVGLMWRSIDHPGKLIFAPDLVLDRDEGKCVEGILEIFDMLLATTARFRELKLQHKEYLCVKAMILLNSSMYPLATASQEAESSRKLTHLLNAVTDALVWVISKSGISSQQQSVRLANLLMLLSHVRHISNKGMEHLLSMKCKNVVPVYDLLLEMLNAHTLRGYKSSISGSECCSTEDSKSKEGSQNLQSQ
Estrogen receptor (Mus musculus), sequence (P19785 whole entry, looked up): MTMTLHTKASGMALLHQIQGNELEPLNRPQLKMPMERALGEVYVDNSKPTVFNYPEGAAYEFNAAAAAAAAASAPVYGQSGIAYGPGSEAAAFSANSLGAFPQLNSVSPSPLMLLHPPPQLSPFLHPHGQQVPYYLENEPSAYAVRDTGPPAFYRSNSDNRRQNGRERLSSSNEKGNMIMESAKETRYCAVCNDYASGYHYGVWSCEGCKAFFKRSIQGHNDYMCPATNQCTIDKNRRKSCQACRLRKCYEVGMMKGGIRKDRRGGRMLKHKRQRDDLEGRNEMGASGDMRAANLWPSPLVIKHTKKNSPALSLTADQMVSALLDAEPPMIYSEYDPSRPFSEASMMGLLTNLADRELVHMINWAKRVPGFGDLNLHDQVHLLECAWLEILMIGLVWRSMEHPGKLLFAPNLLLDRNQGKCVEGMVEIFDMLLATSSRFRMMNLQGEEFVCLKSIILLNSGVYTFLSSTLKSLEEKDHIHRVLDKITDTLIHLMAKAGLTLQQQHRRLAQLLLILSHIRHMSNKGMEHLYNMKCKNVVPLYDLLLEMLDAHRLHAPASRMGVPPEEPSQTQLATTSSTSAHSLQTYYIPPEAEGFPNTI

Regarding `CC(=O)[C@H]1CC[C@H]2[C@@H]3CCC4=CC(=O)CC[C@]4(C)[C@H]3CC[C@]12C`, the relative binding affinity (RBA) in assay [1] was 100; in assay [2], under 0.1.
`C[C@]12CC[C@H]3[C@@H](CCC4=CC(=O)CC[C@@]43C)[C@@H]1CC[C@@H]2C(=O)C[Se]c1ccccc1`: the values for the relative binding affinity (RBA) in assay [1] and in assay [2] were 59 and under 0.1, respectively.
Take `CC(=O)[C@@]1([Se]c2ccccc2)CC[C@H]2[C@@H]3CCC4=CC(=O)CC[C@]4(C)[C@H]3CC[C@@]21C`: the relative binding affinity (RBA) in assay [1] is 2.1; in assay [2] it was under 0.1.
